# Measurements as given in patent US20150306178A1, “METHODS AND COMPOSITIONS FOR TREATING AND PREVENTING TINNITUS” (Auris Medical AG, priority 2014, published 2015).
# Values joined by “and” are separate entries in the source; they are usually repeats but may differ in a detail not shown here. Equal entries are not always repeated. Where no end group is shown, it is not given here. [ ]: non-standard residue; d: D form.
# How the values were obtained:
# ASNHL-related tinnitus = experiment: Double-blind, randomized, placebo-controlled phase II study of AM-111 in ASNHL and associated tinnitus; type: in vivo, human; conditions: for Number of Subjects with Tinnitus/Number of Subjects with Observation (%): Safety Population; for Complete ASNHL-Related Tinnitus Remission in the Treated Ear, Frequency (%): time point Overall, mITT
# Method: A double-blind, randomized, placebo-controlled phase II study was conducted to evaluate the efficacy and safety of AM-111 in treating ASNHL and associated tinnitus. Eligible participants were aged 18 to 60 years and suffered from ASNHL (unilateral idiopathic sudden sensorineural hearing loss (ISSNHL), uni- or bilateral acute acoustic trauma (AAT)) with hearing loss of at least 30 dB and onset not more than 48 hours previously. The hearing loss was determined against a reference value: mean hearing threshold at the 3 most affected contiguous test frequencies (pure tone average, PTA) less corresponding mean hearing threshold of the contralateral ear (Plontke et al., 2007). In case of previously asymmetric hearing or bilateral ASNHL, thresholds from a previous audiogram or ISO-7029; 2000 norm values served as reference. The PTA frequencies determined at baseline remained fixed for all evaluations.
# Exclusion criteria included history of Meniere's disease, autoimmune or radiation induced hearing […] loss, endolymphatic hydrops or fluctuating hearing loss, suspected perilymph fistula, membrane rupture or retrocochlear lesion, barotrauma, air-bone gap >20 dB in 3 contiguous frequencies, previous ASNHL incident within the past 6 weeks, and acute or chronic otitis media or otitis externa. Women who were breast feeding, pregnant or who planned a pregnancy during the study, or women of childbearing potential who declared being unwilling or unable to practice an effective method of […] contraception were excluded. Written informed consent was obtained from each patient prior to the performance of any study-specific procedures.
# At baseline (Day 0), study participants were randomized to receive AM-111 (0.4 or 2.0 mg/mL) or placebo at a 2:1 ratio. The study consisted of a baseline assessment and 4 follow-up visits on Days 3, 7, 30, and 90. Baseline assessments included a general physical examination, vital signs, and a urine pregnancy test for women of childbearing age. At each study visit pure tone hearing thresholds, speech discrimination at 60 and 80 dB, and subjective tinnitus loudness were determined. Those patients reporting tinnitus were asked to rate its loudness “right now” on a numerical scale ranging from 0 (no tinnitus) to 10 (extremely loud).
# Approximately 0.25 mL of the study drug was administered on Day 0 by intratympanic (i.t.) injection under local anesthesia through a small myringotomy with the patient's head placed in a position tilted 45° towards the unaffected ear. Patients remained in their reclined or supine position for approximately 30 minutes to allow for diffusion of the active substance into the cochlea. In case of bilateral AAT, only the worst affected ear was treated. Subjects whose PTA recovered <10 dB from baseline to Day 7 were given the option to receive oral prednisolone 50 mg (Ratiopharm, Ulm, Germany) b.i.d. for 5 days.
# The sample size was determined based on an expected effect size of 0.6, a two-sided type I error rate of 5% and a statistical power of 80%.
# Efficacy analyses were primarily performed on a modified “Intention to treat” (mITT) analysis set (treated patients with PTA measured on Day 3±1 or Day 7+4 days at most) and secondarily on the “Per Protocol” (PP) analysis set. The “Safety Population” analysis set included all patients who received an injection of the study medication. Random imputation was performed for missing PTA values at Days 7 and 30, and missing speech discrimination score (SDS) values at Day 7 based on the preceding value and the mean change observed in the respective treatment group (mITT set).
# For continuous efficacy endpoints, analysis of covariance (ANCOVA) models were used including treatment group and initial frequency range as class effects, and baseline values of the respective endpoint as covariate. For the complete recovery rate, a logistic regression model was applied including treatment, initial frequency range, and baseline hearing loss as predictor variables. […]
# [1] = test system: models of cochlear insult; conditions: acute noise trauma, acute labyrinthitis, aminoglycoside ototoxicity, bacterial infection, cochlear ischemia, cochlear implantation trauma; cited from earlier work
# c-Jun/JNK complex = conditions: in vitro and in intact cells; Holzberg et al. 2003; cited from earlier work
substance,measurement,setting,value
"AM-111: 31-amino acid cell-permeable peptide (SEQ ID NO: 2, all-D), islet-brain 1 effector domain fused to TAT, formulated in a biocompatible hyaluronic acid gel ([dD][dQ][dS][dR][dP][dV][dQ][dP][dF][dL][dN][dL][dT][dT][dP][dR][dK][dP][dR][dP][dP][dR][dR][dR][dQ][dR][dR][dK][dK][dR]G)",Number of Subjects with Tinnitus/Number of Subjects with Observation (%),"ASNHL-related tinnitus; AM-111 0.4 mg/mL single i.t. injection, Day 0, after study drug, 53/56 subjects with ASNHL-related tinnitus",53/56 (94.6) %
same,Number of Subjects with Tinnitus/Number of Subjects with Observation (%),"ASNHL-related tinnitus; AM-111 0.4 mg/mL single i.t. injection, Day 3, 51/56 subjects",51/56 (91.1) %
same,Number of Subjects with Tinnitus/Number of Subjects with Observation (%),"ASNHL-related tinnitus; AM-111 0.4 mg/mL single i.t. injection, Day 7, 42/55 subjects",42/55 (76.4) %
same,Number of Subjects with Tinnitus/Number of Subjects with Observation (%),"ASNHL-related tinnitus; AM-111 0.4 mg/mL single i.t. injection, Day 30, 26/55 subjects",26/55 (47.3) %
same,Number of Subjects with Tinnitus/Number of Subjects with Observation (%),"ASNHL-related tinnitus; AM-111 0.4 mg/mL single i.t. injection, Day 90, 19/50 subjects, placebo 56.0%",38.0% and 19/50 (38.0) %
same,"Complete ASNHL-Related Tinnitus Remission in the Treated Ear, Frequency (%)","ASNHL-related tinnitus; AM-111 0.4 mg/mL, All Subjects N = 50 (35 subjects), placebo 54.9%, p=0.151",35 (70.0%)
same,"Complete ASNHL-Related Tinnitus Remission in the Treated Ear, Frequency (%)","ASNHL-related tinnitus; AM-111 0.4 mg/mL, Mild to Moderate hearing loss subgroup N = 25 (21 subjects), placebo 78.6%, p=0.732",21 (84.0%)
same,Number of Subjects with Tinnitus/Number of Subjects with Observation (%),"ASNHL-related tinnitus; AM-111 2.0 mg/mL single i.t. injection, Day 0, after study drug, 58/59 subjects",58/59 (98.3) %
same,Number of Subjects with Tinnitus/Number of Subjects with Observation (%),"ASNHL-related tinnitus; AM-111 2.0 mg/mL single i.t. injection, Day 3, 59/59 subjects",59/59 (100) %
same,Number of Subjects with Tinnitus/Number of Subjects with Observation (%),"ASNHL-related tinnitus; AM-111 2.0 mg/mL single i.t. injection, Day 7, 51/58 subjects",51/58 (87.9) %
same,Number of Subjects with Tinnitus/Number of Subjects with Observation (%),"ASNHL-related tinnitus; AM-111 2.0 mg/mL single i.t. injection, Day 30, 35/56 subjects",35/56 (62.5) %
same,Number of Subjects with Tinnitus/Number of Subjects with Observation (%),"ASNHL-related tinnitus; AM-111 2.0 mg/mL single i.t. injection, Day 90, 28/54 subjects, placebo 56.0%",51.9% and 28/54 (51.9) %
same,"Complete ASNHL-Related Tinnitus Remission in the Treated Ear, Frequency (%)","ASNHL-related tinnitus; AM-111 2.0 mg/mL, All Subjects N = 56 (31 subjects), placebo 54.9%, p=1.000",31 (55.4%)
same,"Complete ASNHL-Related Tinnitus Remission in the Treated Ear, Frequency (%)","ASNHL-related tinnitus; AM-111 2.0 mg/mL, Mild to Moderate hearing loss subgroup N = 27 (17 subjects), placebo 78.6%, p=0.245",17 (63.0%)
same,Number of Subjects with Tinnitus/Number of Subjects with Observation (%),"ASNHL-related tinnitus; AM-111 Total (0.4 and 2.0 mg/mL groups), Day 0, after study drug, 111/115 subjects",111/115 (96.5) %
same,Number of Subjects with Tinnitus/Number of Subjects with Observation (%),"ASNHL-related tinnitus; AM-111 Total (0.4 and 2.0 mg/mL groups), Day 3, 110/115 subjects",110/115 (95.7) %
same,Number of Subjects with Tinnitus/Number of Subjects with Observation (%),"ASNHL-related tinnitus; AM-111 Total (0.4 and 2.0 mg/mL groups), Day 7, 93/113 subjects",93/113 (82.3) %
same,Number of Subjects with Tinnitus/Number of Subjects with Observation (%),"ASNHL-related tinnitus; AM-111 Total (0.4 and 2.0 mg/mL groups), Day 30, 61/111 subjects",61/111 (55.0) %
same,Number of Subjects with Tinnitus/Number of Subjects with Observation (%),"ASNHL-related tinnitus; AM-111 Total (0.4 and 2.0 mg/mL groups), Day 90, 47/104 subjects",47/104 (45.2) %
same,"Complete tinnitus remission, AM-111 treatment groups versus placebo","ASNHL-related tinnitus; subgroup mild to moderate hearing loss, Fisher's Exact Test",no statistically significant differences
same,Otoprotection in models of cochlear insult,[1],otoprotective
"Ac-YGRKKRRQRRR-gaba-ILKQSMTLNLADPVGSLKPHLRAKN-NH2 (YGRKKRRQRRRXILKQSMTLNLADPVGSLKPHLRAKN; N-acetyl; GABA spacer; C-terminal amide) [SEQ ID NO: 45, cell-permeable 37-mer peptide of human c-Jun delta domain and HIV-TAT protein transduction domain fused by a GABA spacer]",Disruption of c-Jun/JNK complex formation and subsequent phosphorylation and activation of c-Jun by JNK,c-Jun/JNK complex,specifically disrupt c-Jun/JNK complex formation
